In patent US20260297085A1, “1 H-PYRROLO[2,3-B]PYRIDIN-4-YL]-2-OXOPYRROLIDINE-3-CARBONITRILE DERIVATIVES AS TYROSINE KINASE 2 (TYK2) INHIBITORS FOR THE TREATMENT OF INFLAMMATORY DISEASES” (BIOGEN MA INC., priority 2023, published 2026) one finds IC50 data, which are given here for 14 compounds.

Experiment [1] addresses Tyk2 kinase activity on STAT4 in NK92 cells (Homo sapiens, UniProt P29597). In words: pSTAT4 cell assay (MSD; NK92 cells, 30 ng/mL IL2 stimulation). The format is cell-based. As to conditions: 30 ng/mL IL2, 15 minutes. In a few lines:
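NK92, serum-starved; cpd 1 hr, 10-pt 4-fold from 10 μM; IL2 30 ng/mL 15 min; lyse; MSD with anti-STAT4 Abs; IC50 by 4-PL fit.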

The target in experiment [2] is T1, human JAK2 kinase domain (JH1) (Homo sapiens, UniProt O60674).
T1 construct: recombinantly generated catalytic kinase (also known as JH1) domain of human JAK1, JAK2, JAK3 and TYK2
T1 sequence (O60674 849-1124 limits assumed): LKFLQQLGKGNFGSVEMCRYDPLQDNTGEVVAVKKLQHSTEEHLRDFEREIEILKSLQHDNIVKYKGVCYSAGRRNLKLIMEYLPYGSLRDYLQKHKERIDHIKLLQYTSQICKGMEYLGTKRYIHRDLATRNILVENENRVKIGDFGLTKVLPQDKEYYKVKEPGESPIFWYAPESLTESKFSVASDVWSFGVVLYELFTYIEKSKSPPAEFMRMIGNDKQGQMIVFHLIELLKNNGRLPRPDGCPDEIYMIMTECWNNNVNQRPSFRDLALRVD
In words: JH1 biochemical assay for JAK2 (ADP-Glo kinase assay, recombinant JH1 catalytic domain, JAK3-974 peptide, 15 μM ATP). As to conditions: JH1 kinase domain, ADP-Glo. In a few lines:
(§1)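 Reactions ran 100 min with 50 μM substrate peptide (JAK3-342 for JAK1 at 4 nM enzyme; JAK3-974 for JAK2 0.2 nM, JAK3 0.3 nM, TYK2 2 nM), and ADP formed was read by ADP-Glo luminescence. Eleven-point 3-fold series from 10 or 1 μM; IC50 fitted by 4-parameter logistic model.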
In general terms: In ADP-Glo the light output rises with the ADP produced.

Experiment [3] deals with T2, human JAK1 kinase domain (JH1) (Homo sapiens, UniProt P23458).
T2 construct: recombinantly generated catalytic kinase (also known as JH1) domain of human JAK1, JAK2, JAK3 and TYK2
T2 sequence (P23458 875-1153 limits assumed): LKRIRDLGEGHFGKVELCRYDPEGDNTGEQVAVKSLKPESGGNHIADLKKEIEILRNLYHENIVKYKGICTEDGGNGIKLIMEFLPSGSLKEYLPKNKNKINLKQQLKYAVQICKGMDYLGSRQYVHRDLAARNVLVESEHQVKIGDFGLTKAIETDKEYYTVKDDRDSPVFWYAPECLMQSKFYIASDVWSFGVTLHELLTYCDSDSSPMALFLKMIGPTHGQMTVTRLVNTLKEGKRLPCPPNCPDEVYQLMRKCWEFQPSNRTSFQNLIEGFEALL
The experiment in a line: JH1 biochemical assay for JAK1 (ADP-Glo kinase assay, recombinant JH1 catalytic domain, JAK3-342 peptide, 35 μM ATP). As to conditions: JH1 kinase domain, ADP-Glo. In a few lines: as §1

In experiment [4] the target is JAK2 kinase activity on STAT5 in TF1 cells (Homo sapiens, UniProt O60674). The experiment in a line: pSTAT5 cell assay (MSD; TF1 cells, 30 ng/mL IL-3 stimulation). As to conditions: 30 ng/mL IL-3, 15 minutes. The format is cell-based. In a few lines: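 Serum-starved TF1 cells with native JAK2/STAT5 were pretreated 1 h with compound (10-point four-fold dilutions from 10 μM), then stimulated 15 min with 30 ng/mL IL-3. pSTAT5 in lysates quantified by MSD immunoassay; normalized percent activity fitted to a 4-parameter logistic curve for IC50.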
JAK2 kinase activity on STAT5 in TF1 cells, sequence (O60674 whole entry): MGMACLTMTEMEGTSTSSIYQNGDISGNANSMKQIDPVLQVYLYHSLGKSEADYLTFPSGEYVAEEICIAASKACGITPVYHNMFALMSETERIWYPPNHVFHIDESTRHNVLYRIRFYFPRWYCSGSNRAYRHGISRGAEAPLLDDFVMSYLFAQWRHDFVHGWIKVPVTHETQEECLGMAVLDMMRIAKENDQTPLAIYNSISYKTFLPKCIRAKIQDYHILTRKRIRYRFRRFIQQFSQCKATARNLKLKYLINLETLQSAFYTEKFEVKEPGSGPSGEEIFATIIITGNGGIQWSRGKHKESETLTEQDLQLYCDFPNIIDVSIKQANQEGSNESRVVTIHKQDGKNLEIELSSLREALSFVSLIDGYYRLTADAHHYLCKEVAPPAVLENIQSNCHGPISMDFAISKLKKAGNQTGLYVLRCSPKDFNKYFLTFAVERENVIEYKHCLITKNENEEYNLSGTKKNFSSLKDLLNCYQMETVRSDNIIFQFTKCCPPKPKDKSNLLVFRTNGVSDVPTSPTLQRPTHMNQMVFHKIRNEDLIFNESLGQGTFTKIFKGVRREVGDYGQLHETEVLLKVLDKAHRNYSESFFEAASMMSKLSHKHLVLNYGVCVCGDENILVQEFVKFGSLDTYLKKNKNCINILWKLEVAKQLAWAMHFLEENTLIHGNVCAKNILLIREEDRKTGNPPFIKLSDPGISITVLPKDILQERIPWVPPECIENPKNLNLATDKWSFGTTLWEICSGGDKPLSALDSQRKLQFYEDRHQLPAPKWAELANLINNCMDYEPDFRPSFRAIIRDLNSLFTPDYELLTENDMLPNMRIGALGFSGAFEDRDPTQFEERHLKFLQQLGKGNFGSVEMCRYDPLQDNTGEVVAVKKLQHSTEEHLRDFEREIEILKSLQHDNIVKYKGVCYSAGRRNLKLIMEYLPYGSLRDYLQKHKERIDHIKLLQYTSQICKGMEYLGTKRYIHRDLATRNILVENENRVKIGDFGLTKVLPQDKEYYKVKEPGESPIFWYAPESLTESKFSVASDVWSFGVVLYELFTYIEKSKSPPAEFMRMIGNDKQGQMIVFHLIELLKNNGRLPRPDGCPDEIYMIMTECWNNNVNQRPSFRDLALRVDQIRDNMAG

In experiment [5] the target is T3, human TYK2 kinase domain (JH1) (Homo sapiens, UniProt P29597).
T3 construct: recombinantly generated catalytic kinase (also known as JH1) domain of human JAK1, JAK2, JAK3 and TYK2
T3 sequence (P29597 897-1176 limits assumed): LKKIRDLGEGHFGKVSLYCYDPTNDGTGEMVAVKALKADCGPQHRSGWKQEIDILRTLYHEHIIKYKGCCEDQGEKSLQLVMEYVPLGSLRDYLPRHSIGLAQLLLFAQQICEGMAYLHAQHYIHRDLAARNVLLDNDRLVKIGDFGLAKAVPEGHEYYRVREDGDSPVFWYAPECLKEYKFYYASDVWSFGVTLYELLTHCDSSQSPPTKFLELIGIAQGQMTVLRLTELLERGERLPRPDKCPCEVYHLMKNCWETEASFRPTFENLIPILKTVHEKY
The experiment in a line: JH1 biochemical assay for TYK2 (ADP-Glo kinase assay, recombinant JH1 catalytic domain, JAK3-974 peptide, 10 μM ATP). As to conditions: JH1 kinase domain, ADP-Glo. In a few lines: as §1

Experiment [6] addresses JAK1 kinase activity on STAT3 in TF1 cells (Homo sapiens, UniProt P23458). In words: pSTAT3 cell assay (MSD; TF1 cells, 30 ng/mL IL-6 stimulation). The format is cell-based. As to conditions: 30 ng/mL IL-6, 15 minutes. In a few lines:
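Serum-starved TF1 cells with endogenous JAK1/STAT3 were pretreated 1 h with compound in a 10-point four-fold dilution series from 10 μM, then stimulated with 30 ng/mL IL-6 for 15 min. pSTAT3 in lysates was quantified by MSD immunoassay, and IC50 came from 4-parameter logistic fits.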

For experiment [7], the target named is T4, human JAK3 kinase domain (JH1) (Homo sapiens, UniProt P52333).
T4 construct: recombinantly generated catalytic kinase (also known as JH1) domain of human JAK1, JAK2, JAK3 and TYK2
T4 sequence (P52333 822-1111 limits assumed): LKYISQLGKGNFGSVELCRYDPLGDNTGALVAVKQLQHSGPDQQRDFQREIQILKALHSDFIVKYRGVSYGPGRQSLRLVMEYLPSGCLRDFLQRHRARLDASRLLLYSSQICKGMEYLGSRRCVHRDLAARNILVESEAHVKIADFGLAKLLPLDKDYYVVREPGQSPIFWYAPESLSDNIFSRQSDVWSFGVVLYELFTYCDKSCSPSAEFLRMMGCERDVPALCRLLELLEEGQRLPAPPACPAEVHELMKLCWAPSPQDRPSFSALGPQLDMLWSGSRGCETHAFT
In words: JH1 biochemical assay for JAK3 (ADP-Glo kinase assay, recombinant JH1 catalytic domain, JAK3-974 peptide, 4 μM ATP). As to conditions: JH1 kinase domain, ADP-Glo. In a few lines:
as §1

As a reminder, the IC50 is the concentration needed to halve the response being measured.

JAK1 kinase activity on STAT3 in TF1 cells, sequence (P23458 whole entry): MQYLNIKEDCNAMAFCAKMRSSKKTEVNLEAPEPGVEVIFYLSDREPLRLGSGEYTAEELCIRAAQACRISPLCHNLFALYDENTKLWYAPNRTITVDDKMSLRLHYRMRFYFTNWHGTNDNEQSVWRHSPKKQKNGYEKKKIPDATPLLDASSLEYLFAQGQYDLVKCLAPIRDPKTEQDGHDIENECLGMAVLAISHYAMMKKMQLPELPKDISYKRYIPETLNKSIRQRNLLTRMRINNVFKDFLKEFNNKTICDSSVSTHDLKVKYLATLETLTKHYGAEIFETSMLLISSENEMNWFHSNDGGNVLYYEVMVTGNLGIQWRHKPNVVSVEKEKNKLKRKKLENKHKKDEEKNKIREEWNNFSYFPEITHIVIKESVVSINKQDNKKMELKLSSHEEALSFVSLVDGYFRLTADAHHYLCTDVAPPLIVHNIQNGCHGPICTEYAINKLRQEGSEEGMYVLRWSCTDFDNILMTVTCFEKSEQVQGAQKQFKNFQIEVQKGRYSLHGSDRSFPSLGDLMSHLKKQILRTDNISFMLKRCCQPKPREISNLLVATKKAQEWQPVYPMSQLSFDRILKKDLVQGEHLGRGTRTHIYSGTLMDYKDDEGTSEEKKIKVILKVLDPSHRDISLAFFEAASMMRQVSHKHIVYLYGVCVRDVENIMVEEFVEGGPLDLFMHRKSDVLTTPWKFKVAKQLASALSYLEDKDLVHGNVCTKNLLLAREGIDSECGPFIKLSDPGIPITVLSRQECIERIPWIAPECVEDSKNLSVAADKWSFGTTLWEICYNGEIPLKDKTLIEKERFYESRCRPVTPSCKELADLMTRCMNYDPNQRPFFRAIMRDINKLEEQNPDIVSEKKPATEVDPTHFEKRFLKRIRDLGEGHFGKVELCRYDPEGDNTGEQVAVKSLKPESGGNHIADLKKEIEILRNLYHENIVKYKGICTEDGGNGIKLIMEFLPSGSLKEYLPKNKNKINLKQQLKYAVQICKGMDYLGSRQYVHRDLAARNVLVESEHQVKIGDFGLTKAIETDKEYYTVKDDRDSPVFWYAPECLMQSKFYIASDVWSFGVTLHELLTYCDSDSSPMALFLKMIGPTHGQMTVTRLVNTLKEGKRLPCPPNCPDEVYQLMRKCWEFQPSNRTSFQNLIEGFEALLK
Tyk2 kinase activity on STAT4 in NK92 cells, sequence (P29597 whole entry): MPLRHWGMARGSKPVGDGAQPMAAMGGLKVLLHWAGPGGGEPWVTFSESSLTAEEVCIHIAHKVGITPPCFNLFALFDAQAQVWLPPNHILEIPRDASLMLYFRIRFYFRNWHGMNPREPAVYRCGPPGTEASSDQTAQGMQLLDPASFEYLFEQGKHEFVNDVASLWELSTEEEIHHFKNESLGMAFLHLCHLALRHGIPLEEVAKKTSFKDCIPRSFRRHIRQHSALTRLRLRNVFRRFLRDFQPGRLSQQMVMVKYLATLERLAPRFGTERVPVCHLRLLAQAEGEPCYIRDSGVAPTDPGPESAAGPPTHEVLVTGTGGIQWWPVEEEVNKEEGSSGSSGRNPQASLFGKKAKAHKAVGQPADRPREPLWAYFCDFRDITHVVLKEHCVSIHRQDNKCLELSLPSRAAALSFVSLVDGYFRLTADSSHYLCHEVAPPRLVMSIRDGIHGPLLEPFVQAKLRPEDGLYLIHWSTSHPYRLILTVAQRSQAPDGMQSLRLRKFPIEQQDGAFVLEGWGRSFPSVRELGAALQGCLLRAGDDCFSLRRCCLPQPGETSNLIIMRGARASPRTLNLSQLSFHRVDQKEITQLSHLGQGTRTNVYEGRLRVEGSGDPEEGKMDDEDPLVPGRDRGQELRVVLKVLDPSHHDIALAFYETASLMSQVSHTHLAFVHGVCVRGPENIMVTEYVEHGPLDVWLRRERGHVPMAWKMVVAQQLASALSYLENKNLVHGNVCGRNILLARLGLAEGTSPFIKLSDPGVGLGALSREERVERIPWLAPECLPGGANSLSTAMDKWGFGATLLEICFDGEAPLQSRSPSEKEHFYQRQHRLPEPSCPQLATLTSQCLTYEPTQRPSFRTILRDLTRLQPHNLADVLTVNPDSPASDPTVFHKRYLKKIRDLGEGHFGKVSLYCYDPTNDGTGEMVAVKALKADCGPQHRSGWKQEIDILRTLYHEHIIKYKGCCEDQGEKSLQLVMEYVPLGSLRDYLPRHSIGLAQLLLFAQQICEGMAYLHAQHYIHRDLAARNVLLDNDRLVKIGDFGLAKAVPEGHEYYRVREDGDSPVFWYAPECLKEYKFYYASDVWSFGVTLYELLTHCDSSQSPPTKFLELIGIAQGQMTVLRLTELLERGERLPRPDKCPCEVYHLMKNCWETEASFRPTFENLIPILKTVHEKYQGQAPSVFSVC

In the case of `CCn1cc(-c2cn3ncc(F)c3c(N3C[C@@H](C)[C@@](C#N)(C4CC4)C3=O)n2)cn1` [Example 188, (3R,4S)-3-cyclopropyl-1-(6-(1-ethyl-1H-pyrazol-4-yl)-3-fluoropyrazolo[1,5-a]pyrazin-4-yl)-4-methyl-2-oxopyrrolidine-3-carbonitrile], the concentration for half-maximal inhibition (IC50) in experiment [1] is 20 to 50 nM; in experiment [2], < 100 nM; in experiment [3], < 100 nM; in experiment [4] it was 1000 to 5000 nM; in experiment [5], < 5 nM; in experiment [6], 100 to 1000 nM. Moreover, the IC50 in experiment [7] was < 100 nM.

With `C[C@@H]1CN(c2nc(-c3cnn(C(F)F)c3)cn3ncc(F)c23)C(=O)[C@]1(C#N)C1CC1` [Example 189, (3R,4S)-3-cyclopropyl-1-(6-(1-(difluoromethyl)-1H-pyrazol-4-yl)-3-fluoropyrazolo[1,5-a]pyrazin-4-yl)-4-methyl-2-oxopyrrolidine-3-carbonitrile], the IC50 in experiment [1] is 50 to 100 nM; in experiment [2], 100 to 1000 nM; in experiment [3] it was < 100 nM; in experiment [4] it was 1000 to 5000 nM; in experiment [5], < 5 nM; in experiment [6], 1000 to 5000 nM. In experiment [7], the IC50 is < 100 nM.

As to `CC(C)n1cc(-c2cn3ncc(F)c3c(N3C[C@@H](C)[C@@](C#N)(C4CC4)C3=O)n2)cn1` [Example 190, (3R,4S)-3-cyclopropyl-1-(3-fluoro-6-(1-isopropyl-1H-pyrazol-4-yl)pyrazolo[1,5-a]pyrazin-4-yl)-4-methyl-2-oxopyrrolidine-3-carbonitrile], the IC50 in experiment [1] was 20 to 50 nM; in experiment [2], < 100 nM; in experiment [3], < 100 nM; in experiment [4], 1000 to 5000 nM; in experiment [5], < 5 nM; in experiment [6], 100 to 1000 nM. For the same compound, the IC50 in experiment [7] was < 100 nM.

As for `C[C@@H]1CN(c2nc(-c3cnn([C@H]4CCOC4)c3)cn3ncc(F)c23)C(=O)[C@]1(C#N)C1CC1` [Example 191, (3R,4S)-3-cyclopropyl-1-(3-fluoro-6-(1-((S)-tetrahydrofuran-3-yl)-1H-pyrazol-4-yl)pyrazolo[1,5-a]pyrazin-4-yl)-4-methyl-2-oxopyrrolidine-3-carbonitrile], the IC50 in experiment [1] was 50 to 100 nM; in experiment [2] it was < 100 nM; in experiment [3], < 100 nM; in experiment [4] it was 1000 to 5000 nM; in experiment [5], < 5 nM; in experiment [6], 1000 to 5000 nM. The IC50 in experiment [7] is < 100 nM.

Consider `C[C@@H]1CN(c2nc(-c3cnn4c3COCC4)cn3ncc(F)c23)C(=O)[C@]1(C#N)C1CC1` [Example 192, (3R,4S)-3-cyclopropyl-1-(6-(6,7-dihydro-4H-pyrazolo[5,1-c][1,4]oxazin-3-yl)-3-fluoropyrazolo[1,5-a]pyrazin-4-yl)-4-methyl-2-oxopyrrolidine-3-carbonitrile], for which the IC50 in experiment [1] was > 100 nM; in experiment [2], 100 to 1000 nM; in experiment [3], < 100 nM; in experiment [4], > 10000 nM; in experiment [5], 5 to 20 nM; in experiment [6] it was 1000 to 5000 nM. Also, in experiment [7], the IC50 was < 100 nM.

Regarding `COc1cccc(-c2cn3nccc3c(N3C[C@@H](C)[C@@](C#N)(C4CC4)C3=O)n2)n1` [Example 193, (3R,4S)-3-cyclopropyl-1-(6-(6-methoxypyridin-2-yl)pyrazolo[1,5-a]pyrazin-4-yl)-4-methyl-2-oxopyrrolidine-3-carbonitrile], the IC50 in experiment [1] is > 100 nM; in experiment [2], > 10000 nM; in experiment [3] it was 100 to 1000 nM; in experiment [4], > 10000 nM; in experiment [5] it was 5 to 20 nM; in experiment [6] it was > 10000 nM. In experiment [7], the IC50 is > 10000 nM.

For `C[C@@H]1CN(c2nc(-c3cccnc3)cn3nccc23)C(=O)[C@]1(C#N)C1CC1` [Example 194, (3R,4S)-3-cyclopropyl-4-methyl-2-oxo-1-(6-(pyridin-3-yl)pyrazolo[1,5-a]pyrazin-4-yl)pyrrolidine-3-carbonitrile], the IC50 in experiment [1] is > 100 nM; in experiment [2], 100 to 1000 nM; in experiment [3], < 100 nM; in experiment [4] it was 1000 to 5000 nM; in experiment [5], < 5 nM; in experiment [6], 1000 to 5000 nM. Besides, in experiment [7], the IC50 was < 100 nM.

As to `C[C@@H]1CN(c2nc(-c3ccc(C#N)nc3)cn3nccc23)C(=O)[C@]1(C#N)C1CC1` [Example 195, 5-(4-((3R,4S)-3-cyano-3-cyclopropyl-4-methyl-2-oxopyrrolidin-1-yl)pyrazolo[1,5-a]pyrazin-6-yl)picolinonitrile], the IC50 in experiment [1] was > 100 nM; in experiment [2], 100 to 1000 nM; in experiment [3] it was < 100 nM; in experiment [4], > 10000 nM; in experiment [5], 5 to 20 nM; in experiment [6] it was 1000 to 5000 nM. In addition, the IC50 in experiment [7] is < 100 nM.

Regarding `C[C@@H]1CN(c2nc(-c3ccnc(C#N)c3)cn3nccc23)C(=O)[C@]1(C#N)C1CC1` [Example 197, 4-(4-((3R,4S)-3-cyano-3-cyclopropyl-4-methyl-2-oxopyrrolidin-1-yl)pyrazolo[1,5-a]pyrazin-6-yl)picolinonitrile], the IC50 in experiment [1] is > 100 nM; in experiment [2] it was 100 to 1000 nM; in experiment [3], < 100 nM; in experiment [4], > 10000 nM; in experiment [5] it was 5 to 20 nM; in experiment [6] it was 1000 to 5000 nM. Also, the IC50 in experiment [7] was < 100 nM.

For `C[C@@H]1CN(c2nc(-c3cnn(C4CC4(F)F)c3)cn3nccc23)C(=O)[C@]1(C#N)C1CC1` (stereo partly drawn) [Example 198, (3R,4S)-3-cyclopropyl-1-(6-(1-(2,2-difluorocyclopropyl)-1H-pyrazol-4-yl)pyrazolo[1,5-a]pyrazin-4-yl)-4-methyl-2-oxopyrrolidine-3-carbonitrile], the IC50 in experiment [1] is 50 to 100 nM; in experiment [2] it was < 100 nM; in experiment [3], < 100 nM; in experiment [4], 100 to 1000 nM; in experiment [5], < 5 nM; in experiment [6], 100 to 1000 nM. Further, the IC50 in experiment [7] was < 100 nM.

For the compound `Cc1c(-c2cn3nccc3c(N3C[C@@H](C)[C@@](C#N)(C4CC4)C3=O)n2)cnn1C` [Example 199, (3R,4S)-3-cyclopropyl-1-(6-(1,5-dimethyl-1H-pyrazol-4-yl)pyrazolo[1,5-a]pyrazin-4-yl)-4-methyl-2-oxopyrrolidine-3-carbonitrile], the IC50 in experiment [1] is > 100 nM; in experiment [2] it was 100 to 1000 nM; in experiment [3] it was < 100 nM; in experiment [4], 5000 to 10000 nM; in experiment [5], 5 to 20 nM; in experiment [6] it was 1000 to 5000 nM. Also, the IC50 in experiment [7] is 100 to 1000 nM.

With `[2H]C([2H])([2H])n1cc(-c2cn3nccc3c(N3C[C@@H](C)[C@@](C#N)(C4CC4)C3=O)n2)cn1` [Example 201, (3R,4S)-3-cyclopropyl-4-methyl-1-(6-(1-(methyl-d3)-1H-pyrazol-4-yl)pyrazolo[1,5-a]pyrazin-4-yl)-2-oxopyrrolidine-3-carbonitrile], the IC50 is 20 to 50 nM in experiment [1]; < 100 nM in experiment [2]; < 100 nM in experiment [3]; 100 to 1000 nM in experiment [4]; < 5 nM in experiment [5]; 100 to 1000 nM in experiment [6]. Further, the IC50 in experiment [7] is < 100 nM.

Turning to `CCn1cc(-c2cn3nccc3c(N3C[C@@H](C)[C@@](C#N)(C4CC4)C3=O)n2)cn1` [Example 202, (3R,4S)-3-cyclopropyl-1-(6-(1-ethyl-1H-pyrazol-4-yl)pyrazolo[1,5-a]pyrazin-4-yl)-4-methyl-2-oxopyrrolidine-3-carbonitrile], the IC50 was 50 to 100 nM in experiment [1]; < 100 nM in experiment [2]; < 100 nM in experiment [3]; 100 to 1000 nM in experiment [4]; < 5 nM in experiment [5]; 100 to 1000 nM in experiment [6]. Besides, the IC50 in experiment [7] was < 100 nM.

For `C[C@@H]1CN(c2nc(-c3cnn(C4CCOCC4)c3)cn3nccc23)C(=O)[C@]1(C#N)C1CC1` [Example 203, (3R,4S)-3-cyclopropyl-4-methyl-2-oxo-1-(6-(1-(tetrahydro-2H-pyran-4-yl)-1H-pyrazol-4-yl)pyrazolo[1,5-a]pyrazin-4-yl)pyrrolidine-3-carbonitrile], the IC50 was 20 to 50 nM in experiment [1]; < 100 nM in experiment [2]; < 100 nM in experiment [3]; < 100 nM in experiment [4]; < 5 nM in experiment [5]; 100 to 1000 nM in experiment [6]. Also, the IC50 in experiment [7] was < 100 nM.
